Results: patent US20180303086A1, “An Antimicrobial Composition” (Conopco, Inc., d/b/a UNILEVER, priority 2015, published 2018)

Experiment: Solubility product and silver ion solubility of silver compounds in water at 25° C.
Assay type: physicochemical
Conditions: calculated from Ksp, [Ag+]=(Ksp·x)^(1/(x+1))
Description: More particularly, silver ion solubility [Ag+], a value given in mol/L may be calculated using the formula: […]

Silver Ion Solubility [Ag+]: 13 µM
Structure (SMILES): [Cl][Ag] [Silver chloride]
